In patent publication US20250034139A1, “AMINE COMPOUNDS HAVING ANTI-INFLAMMATORY, ANTIFUNGAL, ANTIPARASITIC, AND ANTICANCER ACTIVITY” (PHARMA CINQ, LLC, priority 2013, published 2025):
In brackets after ≈: the same amount, converted by molar mass. Where two headings read alike, the source gives them in different places.

Tests used:
[1] = system: Aspergillus fumigatus strains; test: Example N: MIC and MFC (CLSI) against Aspergillus fumigatus; assay type: cell-based; details: for MIC50 / MIC: Aspergillus fumigatus; for MIC: read-out: MIC 100%
Protocol: (§1) The objective of this study was to determine the antifungal activity of eight experimental compounds against a representative panel of fungal isolates, including Candida albicans, C. glabrata, Cryptococcus neoformans, Trichophyton rubrum, Aspergillus fumigatus, and Rhizopus spp. Antifungal activity was measured by minimum inhibitory concentration (MIC) and minimum fungicidal concentration (MFC).
(§2) Three recent clinical strains of each species, taken from the culture collection at the Center for Medical Mycology, Case Western University, were tested.
(§3) Compounds in powder form were dissolved in DMSO. Serial dilutions of each compound were then prepared in RPMI-1640 in a range of […].
(§4) MIC testing was performed according to the CLSI M27-A3 and M38-A2 standards for the susceptibility testing of yeasts and filamentous fungi, respectively (1, 2). Test isolates were subcultured from frozen slants onto potato dextrose agar plates (Trichophyton rubrum was subcultured onto oatmeal plates for conidia production) and checked for purity. Inocula were then prepared in RPMI-1640 (YNB for Cryptococcus) to a concentration of 0.5-2.5×10^3 colony-forming units (CFU)/ml or 0.4-5×10^4 conidia/ml for yeast and filamentous fungi, respectively.
(§5) MFC determinations were performed according to the modifications previously described by Canton et al. and Ghannoum and Isham. (3, 4) Specifically, the total contents of each clear well from the MIC assay were subcultured onto potato dextrose agar. To avoid antifungal carryover, the aliquots were allowed to soak into the agar and then were streaked for isolation once dry, thus removing the cells from the drug source.

THP-1 cells = test: Example C: compound screen, viable THP-1 cell count after 5 hours +/- LPS; assay type: cell-based, Human
[2] = system: PC3 human prostate cancer cells; test: Example S: in vitro anticancer screen, PC-3 cells, Wst1; assay type: cell-based; details: Homo sapiens, PC-3, approximately 20 hours, Wst1, read-out: PC-3, percent of cancer cell survival relative to vehicle treated cells
Summary of the method: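 PC-3 cells, 2×10^4 cells/well, exposed ~20 h to vehicle or compound at 0.4, 0.5 or 2.5 μM as specified per compound. Wst1 dye added for 2 h; absorbance 450 nm (reference 630 nm), triplicates. Values are percent cell survival versus vehicle-treated cells.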

[3] = system: PC-3 prostate cancer cells; test: Example T: sensitisation of PC-3 cells to doxorubicin, oxaliplatin, paclitaxel or vincristine, Wst1; assay type: cell-based, human; details: PC-3 cells, 72 hours; for Doxorubicin 3.5 μM: percent cell survival / Oxaliplatin 100 μM: percent cell survival / Paclitaxel 50 μM: percent cell survival / Vincristine 100 nM: percent cell survival: chemotherapy agent alone normalized to 100%
[4] = system: Cryptococcus neoformans strains; test: Example N: MIC and MFC (CLSI) against Cryptococcus neoformans; assay type: cell-based; details: Cryptococcus neoformans, three clinical strains; for MIC: read-out: MIC 100%, Range, incubated for 72 hrs
Protocol: as §1, §2, §3, §4, §5

Trichophyton rubrum = test: Example J: Trichophyton rubrum growth inhibition, scoring by eye; assay type: cell-based; details: Trichophyton rubrum, 144 h; 6 days at 30° C., tested 6 to 40 μM; read-out: MIC, μM (maximum inhibition concentration, scoring by eye)
Summary of the method: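 Filtered T. rubrum suspension from PDA plates (grown 4 days, 30 °C) treated with diluted compounds in triplicate, incubated 6 days at 30 °C. Plates imaged; MIC scored by eye.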

Rhizopus strains = test: Example N: MIC and MFC (CLSI) against Rhizopus; assay type: cell-based, Rhizopus spp.; details: for MIC50 / MIC: Rhizopus; for MFC: range over Rhizopus strains, in 48 hr
Protocol: as §1, §2, §3, §4, §5

Candida glabrata strains = test: Example N: MIC and MFC (CLSI) against Candida glabrata; assay type: cell-based; details: for cidal activity (MFC within 4 dilutions of the MIC), in words: 3 strains; for MIC50 / MIC / MFC: Nakaseomyces glabratus; for MIC: read-out: MIC 100%; for MFC: range over Candida glabrata strains, in 48 hr
Protocol: as §1, §2, §3, §4, §5

[5] = system: 4T1 murine breast cancer cells; test: Example S: in vitro anticancer screen, 4T1 cells, Wst1; assay type: cell-based, mouse; details: Mus musculus, 4T1, 18 h, 18 hr, Wst1
Summary of the method: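 4T1 cells seeded at 1×10^4/well were exposed to compound at 1 μM or 5 μM for 18 hr after plating. Wst1 tetrazolium dye was then added for about 2 hr and absorbance read at 450 nm (reference 630 nm). Values are percent survival relative to vehicle-treated cells.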

SMILES | MIC50 ([1]; 24 h) [µg/mL] | MIC ([1]; 24 h) [µg/mL] | MIC50 ([1]; 48 h) [µg/mL] | MIC ([1]; 48 h) [µg/mL] | Reduction in viable THP-1 cell count (percent change) from 0 hours, Mean ± SE (THP-1 cells; Compound (0.1 μM), No LPS) [%] | Reduction in viable THP-1 cell count (percent change) from 0 hours, Mean ± SE (THP-1 cells; Compound (0.1 μM), Plus LPS) [%] | Reduction in viable THP-1 cell count (percent change) from 0 hours, Mean ± SE (THP-1 cells; Compound (1.0 μM), No LPS) [%] | Reduction in viable THP-1 cell count (percent change) from 0 hours, Mean ± SE (THP-1 cells; Compound (1.0 μM), Plus LPS) [%] | MIC [4] [µg/mL] | MFC [4] [µg/mL] | MIC (Trichophyton rubrum) [µM] | MIC50 (Rhizopus strains; 24 h) [µg/mL] | MIC (Rhizopus strains; 24 h, read-out: MIC 100%) [µg/mL] | MIC50 (Rhizopus strains; 48 h) [µg/mL] | MIC (Rhizopus strains; 48 h, read-out: MIC 100%) [µg/mL] | MFC (Rhizopus strains) [µg/mL] | cidal activity (MFC within 4 dilutions of the MIC), in words (Candida glabrata strains) | MIC50 (Candida glabrata strains; 24 h) [µg/mL] | MIC (Candida glabrata strains; 24 h) [µg/mL] | MIC50 (Candida glabrata strains; 48 h) [µg/mL] | also measured
CCCCCCOc1cccc(CNc2ccnc3ccccc23)c1 [Compound AC, N-[3-(Hexyloxy)benzyl]quinolin-4-amine] | < 0.12 | 0.25 to 0.5 (≈ 0.747 to 1.49 µM) | 0.5 to 1 (≈ 1.49 to 2.99 µM) | 1 (≈ 2.99 µM) | −7.48 ± 5.82 | −15.14 ± 2.06 | −9.60 ± 1.96 | −44.25 ± 2.53 | 0.25 to 4 (≈ 0.747 to 12 µM) | 8 (≈ 23.9 µM) | 18 (≈ 6.02 µg/mL) | 0.12 to 0.25 (≈ 0.359 to 0.747 µM) | 0.5 (≈ 1.49 µM) | 0.5 (≈ 1.49 µM) | 0.5 to 1 (≈ 1.49 to 2.99 µM) | 16 to 64 (≈ 47.8 to 191 µM) | cidal against all of the C. glabrata strains tested | 0.5 to 1 (≈ 1.49 to 2.99 µM) | 1 to 2 (≈ 2.99 to 5.98 µM) | 1 to 2 (≈ 2.99 to 5.98 µM) | MIC at 100% inhibition ([1]; 48 hrs): 1 µg/mL (≈ 2.99 µM); viability at 0.4 µM ([2]; 0.4 μM): 61.5%; viability at 0.4 µM ([3]; Homo sapiens, compound 0.4 μM alone, Wst1, vehicle = 100, read-out: No Chemo: percent cell survival): 61.5%; Doxorubicin 3.5 μM: percent cell survival ([3]; compound 0.4 μM + doxorubicin 3.5 μM): 32.8%; Oxaliplatin 100 μM: percent cell survival ([3]; compound 0.4 μM + oxaliplatin 100 μM): 30%; Paclitaxel 50 μM: percent cell survival ([3]; compound 0.4 μM + paclitaxel 50 μM): 14%; Vincristine 100 nM: percent cell survival ([3]; compound 0.4 μM + vincristine 100 nM): 34.1%; MIC at 50% inhibition (Rhizopus strains; 24 hrs): <0.12-0.25; MIC at 100% inhibition (Rhizopus strains; 24 hrs): 0.5 µg/mL (≈ 1.49 µM); MIC (Rhizopus strains; read-out: MIC at 50% inhibition, 48 hr): 0.5 µg/mL (≈ 1.49 µM); MIC (Rhizopus strains; read-out: MIC at 100% inhibition, 48 hr): 0.5 to 1 µg/mL (≈ 1.49 to 2.99 µM); MIC (Candida glabrata strains; 48 h): 2 to 4 µg/mL (≈ 5.98 to 12 µM); MFC (Candida glabrata strains): 4 to 8 µg/mL (≈ 12 to 23.9 µM); viability at 1 µM ([5]; 1 μM, read-out: 4T1 1 μM, percent of cancer cell survival relative to vehicle treated cells): 23.3%; viability at 5 µM ([5]; 5 μM, read-out: 4T1 5 μM, percent of cancer cell survival relative to vehicle treated cells): 19.3%
CCCCCCCCCCNc1ccnc2ccccc12 [Compound AG, N-(Decyl)quinolin-4-amine] | 0.5 to 1 (≈ 1.76 to 3.52 µM) | 1 (≈ 3.52 µM) | 1 to 2 (≈ 3.52 to 7.03 µM) | 1 to 2 (≈ 3.52 to 7.03 µM) | −6.24 ± 0.69 | −21.28 ± 1.52 | −4.02 ± 2.83 | −38.58 ± 0.73 | 4 (≈ 14.1 µM) | 8 to 16 (≈ 28.1 to 56.2 µM) | 18 (≈ 5.12 µg/mL) | 1 to 2 (≈ 3.52 to 7.03 µM) | 2 (≈ 7.03 µM) | 2 to 4 (≈ 7.03 to 14.1 µM) | 2 to 4 (≈ 7.03 to 14.1 µM) | 4 to 16 (≈ 14.1 to 56.2 µM) | cidal against all of the C. glabrata strains tested | 0.25 to 1 (≈ 0.879 to 3.52 µM) | 0.5 to 2 (≈ 1.76 to 7.03 µM) | 0.5 to 2 (≈ 1.76 to 7.03 µM) | cidal activity (MFC within 4 dilutions of the MIC), in words ([1]; 3 strains): cidal against one of the A. fumigatus strains (MRL 28397); ability to inactivate pro-inflammatory THP-1 cells, in words (relative to benchmark AC) (THP-1 cells; LPS-treated THP-1 cells): higher activity than the active benchmark compound AC; viability at 2.5 µM ([2]; 2.5 μM): 18.4%; viability at 2.5 µM ([3]; Homo sapiens, compound 2.5 μM alone, Wst1, vehicle = 100, read-out: No Chemo: percent cell survival): 18.4%; Doxorubicin 3.5 μM: percent cell survival ([3]; compound 2.5 μM + doxorubicin 3.5 μM): 21.1%; Oxaliplatin 100 μM: percent cell survival ([3]; compound 2.5 μM + oxaliplatin 100 μM): 27.1%; Paclitaxel 50 μM: percent cell survival ([3]; compound 2.5 μM + paclitaxel 50 μM): 21.8%; Vincristine 100 nM: percent cell survival ([3]; compound 2.5 μM + vincristine 100 nM): 17.1%; MIC (Candida glabrata strains; 48 h): 0.5 to 2 µg/mL (≈ 1.76 to 7.03 µM); MFC (Candida glabrata strains): 4 µg/mL (≈ 14.1 µM)
